Patent US7628979B1, “Use of calco oil blue V in bait formulations for marking and controlling subterranean termites” (The United States of America as represented by the …, priority 2005, dated 2009)

Legend:
[1] = tested on: Formosan subterranean termites; experiment: In-field marking and control, bait at infested trees, sites 1 and 2; type: in vivo; details: 250 ppm bait
From the text: (§1) Formosan subterranean termite and native subterranean termite infested trees (Water Oaks and Legastrums) in New Orleans, La. were chosen for this study. Three sites were selected located at the Southern Regional Research Center campus. Site 1 was located near the service building next to an old water oak tree, site 2 was located in the compound area near ligastrum trees, and site 3 near ligastrum trees outside the compound area. Sites 1 and 2 were active with Formosan subterranean termites and site 3 with Eastern subterranean termites.
(§2) The colored bait matrix at 250 ppm was encapsulated as described above and placed directly in the base of the trees where termites were foraging, making sure that the encapsulated colored bait matrix was covered with soil or with a piece of wood or brick on top of it to prevent desiccation. The bait was periodically inspected for consumption and termite activity. The field study started in early August and was completed by the end of the following June. During winter (December-February) termite activity decreased considerably, but by April termite activity and foraging resumed and the blue colored matrix was replaced by bait formulation containing 250 ppm of chitin synthesis inhibitors to kill the colonies. Diflubenzuron was used in 2 of the sites and chlorfluazuron was used in the remaining site.

[2] = tested on: Eastern subterranean termites; experiment: In-field marking and control, bait at infested trees, site 3; type: in vivo; details: Site 3 (Ligastrum), 250 ppm bait
From the text: as §1, §2

Measured: Bait consumption

O=C(NC(=O)c1c(F)cccc1F)Nc1cc(Cl)c(Oc2ncc(C(F)(F)F)cc2Cl)c(Cl)c1 [Chlorfluazuron, 1-[3,5-dichloro-4-(3-chloro-5-trifluoromethyl-2-pyridyloxy)phenyl]-3-(2,6-difluorobenzoyl)urea, reference compound]
750 g: [1]; Site 2 (Ligastrum), day 281
450 g: [1]; Site 2 (Ligastrum), day 251
0 g: [1]; Site 2 (Ligastrum), day 7 | [1]; Site 2 (Ligastrum), day 14 | [1]; Site 2 (Ligastrum), day 21 | [1]; Site 2 (Ligastrum), day 27 | [1]; Site 2 (Ligastrum), day 46 | [1]; Site 2 (Ligastrum), day 56 | [1]; Site 2 (Ligastrum), day 73 | [1]; Site 2 (Ligastrum), day 83 | [1]; Site 2 (Ligastrum), day 102 | [1]; Site 2 (Ligastrum), day 159 | [1]; Site 2 (Ligastrum), day 221

O=C(NC(=O)c1c(F)cccc1F)Nc1ccc(Cl)cc1 [Diflubenzuron, 1-(4-chlorophenyl)-3-(2,6-difluorobenzoyl)urea, reference compound]
0 g: [1]; Site 1 (Water Oak), day 7 | [1]; Site 1 (Water Oak), day 14 | [1]; Site 1 (Water Oak), day 21 | [1]; Site 1 (Water Oak), day 27 | [1]; Site 1 (Water Oak), day 46 | [1]; Site 1 (Water Oak), day 56 | [1]; Site 1 (Water Oak), day 73 | [1]; Site 1 (Water Oak), day 83 | [1]; Site 1 (Water Oak), day 102 | [1]; Site 1 (Water Oak), day 159 | [1]; Site 1 (Water Oak), day 221 | [2]; day 7 | [2]; day 14 | [2]; day 21 | [2]; day 27 | [2]; day 46 | [2]; day 56 | [2]; day 73 | [2]; day 83 | [2]; day 102 | [2]; day 159 | [2]; day 221
150 g: [1]; Site 1 (Water Oak), day 251 | [2]; day 251
300 g: [1]; Site 1 (Water Oak), day 281 | [2]; day 281
